Data as given in the supplement of paper PMC5412046.
Structures can show the parent of a compound that is named as a salt.

Legend:
SB.msgc-1 [1] = assay: area under the dose-response curve of % viability (trapezoidal, 11 doses) (% viability x log10 concentration); higher = less cytotoxic; settings: SB.msgc-1 (sporadic gastric cancer)
In short: (§1)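 A pintool delivered 23 nL of compound in DMSO to 1536-well plates holding 500 hereditary or sporadic patient-derived gastric cancer cells in 5 μL medium per well, at 11 concentrations in threefold steps. Following 48 h of exposure, cells were treated with CellTiter-Glo for 30 min at room temperature, and plates were read for luminescence on a ViewLux. The reported measure is viability normalised to DMSO, either at the top concentration or as trapezoidal area under the curve.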

SB.mhdgc-1 [2] = assay: as above; settings: SB.mhdgc-1 (hereditary c.1380delA CDH1 gastric cancer)
In short: as §1

SB.msgc-1 [3] = assay: viability at highest tested concentration (MAXR) relative to DMSO; higher = less cytotoxic; settings: SB.msgc-1 (sporadic gastric cancer)
In short: as §1

SB.mhdgc-1 [4] = assay: as above; settings: SB.mhdgc-1 (hereditary c.1380delA CDH1 gastric cancer)
In short: as §1

C[N]1C=NC=C1[C@@](N)(C2=CC=C(Cl)C=C2)C3=CC=C4N(C)C(=O)\C=C(\C5=CC=CC(=C5)Cl)C4=C3 [Tipifarnib] (top concentration 46.0829 µM)
area under the dose-response curve (SB.msgc-1 [1]): 434 | area under the dose-response curve (SB.mhdgc-1 [2]): 485 | viability (SB.msgc-1 [3]): 24.2% | viability (SB.mhdgc-1 [4]): 4.28%

NCCCC(O)(P(=O)(O)O)P(=O)(O)O.O.O.O.[Na+] [Alendronate] (top concentration 46.0829 µM)
area under the dose-response curve (SB.msgc-1 [1]): 576 | area under the dose-response curve (SB.mhdgc-1 [2]): 500 | viability (SB.msgc-1 [3]): 120% | viability (SB.mhdgc-1 [4]): 45.3%

CC(C)c1cc(C(=O)N2Cc3ccc(CN4CCN(C)CC4)cc3C2)c(O)cc1O (top concentration 46.0829 µM)
area under the dose-response curve (SB.msgc-1 [1]): 348 | area under the dose-response curve (SB.mhdgc-1 [2]): 443 | viability (SB.msgc-1 [3]): 43% | viability (SB.mhdgc-1 [4]): 9.31%

O=C(c1cncc(Br)c1)N1CCC(N2CCCC2)CC1 [UNC669] (top concentration 46.0829 µM)
area under the dose-response curve (SB.msgc-1 [1]): 516 | area under the dose-response curve (SB.mhdgc-1 [2]): 563 | viability (SB.msgc-1 [3]): 106% | viability (SB.mhdgc-1 [4]): 121%

N[C@H]2CN(CC12CC1)c3c(F)cc4c(c3Cl)[N@@](C=C(C4=O)C(=O)O)C5C[C@H]5F (stereo partly drawn) [Sitafloxacin hydrate] (top concentration 46.0829 µM)
area under the dose-response curve (SB.msgc-1 [1]): 468 | area under the dose-response curve (SB.mhdgc-1 [2]): 444 | viability (SB.msgc-1 [3]): 85.1% | viability (SB.mhdgc-1 [4]): 69.5%

CCC1(c2ccccc2)C(=O)NCNC1=O [Primidone] (top concentration 46.0829 µM)
area under the dose-response curve (SB.msgc-1 [1]): 484 | area under the dose-response curve (SB.mhdgc-1 [2]): 350 | viability (SB.msgc-1 [3]): 6.59% | viability (SB.mhdgc-1 [4]): 3.13%

Cc1n[nH]c2ccc(-c3cncc(OC[C@@H](N)Cc4ccccc4)c3)cc12 (top concentration 46.0829 µM)
area under the dose-response curve (SB.msgc-1 [1]): 458 | area under the dose-response curve (SB.mhdgc-1 [2]): 389 | viability (SB.msgc-1 [3]): 16.3% | viability (SB.mhdgc-1 [4]): 0.463%

CCOC(=O)c1cncn1[C@H](C)c1ccccc1 [Etomidate] (top concentration 46.0829 µM)
area under the dose-response curve (SB.msgc-1 [1]): 533 | area under the dose-response curve (SB.mhdgc-1 [2]): 593 | viability (SB.msgc-1 [3]): 90.1% | viability (SB.mhdgc-1 [4]): 107%

CN(C)CCOc1ccc(-c2nc(-c3ccncc3)c(-c3ccc4c(c3)CC/C4=N\O)[nH]2)cc1 (top concentration 46.0829 µM)
area under the dose-response curve (SB.msgc-1 [1]): 474 | area under the dose-response curve (SB.mhdgc-1 [2]): 496 | viability (SB.msgc-1 [3]): 25.4% | viability (SB.mhdgc-1 [4]): 3.84%

CN1\C(=C(\O)C2=CC=CC=C2[S+]1([O-])=O)C(=O)NC3=NC=C(C)S3 [Meloxicam] (top concentration 46.0829 µM)
area under the dose-response curve (SB.msgc-1 [1]): 341 | area under the dose-response curve (SB.mhdgc-1 [2]): 447 | viability (SB.msgc-1 [3]): 52.2% | viability (SB.mhdgc-1 [4]): 99.9%

CCCOc1ccc(C(=O)OCCN(CC)CC)cc1N [Proparacaine] (top concentration 46.0829 µM)
area under the dose-response curve (SB.msgc-1 [1]): 533 | area under the dose-response curve (SB.mhdgc-1 [2]): 580 | viability (SB.msgc-1 [3]): 102% | viability (SB.mhdgc-1 [4]): 103%

COc1ccccc1[C@H](c1cccc2ccccc12)[C@@](C)(C#N)C(=O)N1CCC(c2cccc(C(F)(F)F)c2)CC1 (top concentration 46.0829 µM)
area under the dose-response curve (SB.msgc-1 [1]): 479 | area under the dose-response curve (SB.mhdgc-1 [2]): 445 | viability (SB.msgc-1 [3]): 75.2% | viability (SB.mhdgc-1 [4]): 25.3%

COc1cc[nH]c2ncc(C(=O)C(=O)N3CCN(C(=O)c4ccccc4)C[C@H]3C)c1-2 (top concentration 46.0829 µM)
area under the dose-response curve (SB.msgc-1 [1]): 589 | area under the dose-response curve (SB.mhdgc-1 [2]): 482 | viability (SB.msgc-1 [3]): 115% | viability (SB.mhdgc-1 [4]): 81.9%

Cc1ccc(CN2CCNCC2)cc1NC(=O)CNc1ccc(F)c(F)c1 (top concentration 46.0829 µM)
area under the dose-response curve (SB.msgc-1 [1]): 488 | area under the dose-response curve (SB.mhdgc-1 [2]): 407 | viability (SB.msgc-1 [3]): 32.8% | viability (SB.mhdgc-1 [4]): 48.3%

C[C@H]1[C@@H](C(=O)C[C@H]2O[C@@H]3O[C@]4(C)CC[C@H]5[C@H](C)CC[C@@H]([C@H]2C)[C@@]35OO4)O[C@@H]2O[C@]3(C)CC[C@H]4[C@H](C)CC[C@@H]1[C@@]24OO3 [BTM-2C-dimer ketone] (top concentration 46.0829 µM)
area under the dose-response curve (SB.msgc-1 [1]): 497 | area under the dose-response curve (SB.mhdgc-1 [2]): 455 | viability (SB.msgc-1 [3]): 69% | viability (SB.mhdgc-1 [4]): 50.9%

CN1CC/C(CC1)=C3\c4ccccc4CC(=O)c2sccc23 [Ketotifen] (top concentration 46.0829 µM)
area under the dose-response curve (SB.msgc-1 [1]): 468 | area under the dose-response curve (SB.mhdgc-1 [2]): 446 | viability (SB.msgc-1 [3]): 9% | viability (SB.mhdgc-1 [4]): 41%

Clc1ccccc1CN1CCc2sccc2C1 [Ticlopidine hydrochloride] (top concentration 46.0829 µM)
area under the dose-response curve (SB.msgc-1 [1]): 552 | area under the dose-response curve (SB.mhdgc-1 [2]): 536 | viability (SB.msgc-1 [3]): 108% | viability (SB.mhdgc-1 [4]): 119%

O=C(Nc1ccccc1Br)N[C@@H]1CCN(c2ccc(C(F)(F)F)cn2)C1 (top concentration 46.0829 µM)
area under the dose-response curve (SB.msgc-1 [1]): 542 | area under the dose-response curve (SB.mhdgc-1 [2]): 475 | viability (SB.msgc-1 [3]): 66.9% | viability (SB.mhdgc-1 [4]): 56.4%

O=C(Nc1nc2ccccc2n1CCN1CCOCC1)c1cccc([N+](=O)[O-])c1 (top concentration 46.0829 µM)
area under the dose-response curve (SB.msgc-1 [1]): 476 | area under the dose-response curve (SB.mhdgc-1 [2]): 441 | viability (SB.msgc-1 [3]): 32.7% | viability (SB.mhdgc-1 [4]): 2.91%

CCC(=O)OCC(=O)[C@@]1(OC(=O)CC)[C@@H](C)C[C@H]2[C@@H]3CCC4=CC(=O)C=C[C@]4(C)[C@@]3(F)[C@@H](O)C[C@@]21C [Betamethasone dipropionate] (top concentration 46.0829 µM)
area under the dose-response curve (SB.msgc-1 [1]): 537 | area under the dose-response curve (SB.mhdgc-1 [2]): 476 | viability (SB.msgc-1 [3]): 89.9% | viability (SB.mhdgc-1 [4]): 48.5%

COC1=CC=C2CN(C)CC[C@@]34\C=C/[C@H](O)C[C@@H]3OC1=C24 [Galantamine hydrobromide] (top concentration 46.0829 µM)
area under the dose-response curve (SB.msgc-1 [1]): 538 | area under the dose-response curve (SB.mhdgc-1 [2]): 613 | viability (SB.msgc-1 [3]): 102% | viability (SB.mhdgc-1 [4]): 80.1%

COc1cc(O)c2c(c1)C(=O)c1cc(C)cc(O)c1C2=O [Parietin] (top concentration 23.0415 µM)
area under the dose-response curve (SB.msgc-1 [1]): 559 | area under the dose-response curve (SB.mhdgc-1 [2]): 551 | viability (SB.msgc-1 [3]): 106% | viability (SB.mhdgc-1 [4]): 104%
